From ChEMBL document CHEMBL5604062, “ASAP - ZIKV NS2B-NS3 protease fluorescence dose response” (2024)
Values joined by “and” are separate entries in the source; they are usually repeats but may differ in a detail not shown here. Identical values can stand only once.

Target: Nonstructural protein 3 (Zika virus, UniProt A0A024AXB9)
Assay: Functional biochemical assay to identify treatments for viral infectious disease that targets Zika NS2B-NS3 protease. Utilizing a direct enzyme activity measurement method, reading the fluorescence intensity is used to characterize the relative potency of inhibitors as IC50.
Parameters: species or system PRVABC59

Chain of Nonstructural protein 3 (A0A024AXB9 whole entry): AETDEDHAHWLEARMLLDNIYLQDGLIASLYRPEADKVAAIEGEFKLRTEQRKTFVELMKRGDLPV

Point of comparison: CC(=Cc1cccc(-c2nnn[nH]2)c1)c1cc(Cl)cc(NC(=O)OCc2ccccc2)c1, IC50 12.1 µM. Against it:
- NCc1cccc(NC(=O)[C@H](NC(=O)OCc2ccccc2)c2cccc(-c3ccc4c(c3)CC(=O)N4)c2)c1 — within 1.5-fold, 8.83 µM
- O=C(Nc1cc(Cl)cc(C(=O)Nc2cccc(C(=O)O)c2)c1)OCc1ccccc1 — 6.9-fold higher, 84 µM
- CCn1c(=O)c(N2C[C@]3(CO)C[C@H]2CO3)nc2ccccc21 — higher, > 99.5 µM
- Cc1c(C(=O)Nc2cc(CCCN)ccn2)cc(C#N)n1C — higher, > 25 µM
- Cc1csc(CO[C@H]2CCN(C(=O)Nc3ccc4c(c3)CNC4)C2)n1 — higher, > 25 µM
- O=C1Nc2ccccc2[C@H]1N1CCC(c2nc3ccccc3s2)CC1 — higher, > 99.5 µM
- O=C(N[C@H](C(=O)NCc1ccc(F)cc1)c1ccc(OCc2ccccc2)cc1)OCc1ccccc1 — higher, > 99.5 µM
- O=C(c1cc(Cl)ccc1NS(=O)(=O)c1ccc(Oc2ccccc2Cl)cc1)N1CCC[C@H](O)C1 — higher, > 99.5 µM
- O=C(Nc1ccc(NS(=O)(=O)c2ccc(Cl)cc2C(=O)O)cc1)c1ccccc1 — higher, > 99.5 µM
- Cc1c(C(=O)Nc2cc(Br)c3c(c2)COC3)cc(C2CC2)n1C — higher, > 25 µM
- O=C(O)c1cc(Cl)ccc1NS(=O)(=O)c1ccc(OCc2cccnn2)cc1 — higher, > 99.5 µM
- C=CC[C@H](Nc1ccc2c(c1)CNC2)c1cc(Cl)cc2[nH]ncc12 — 1.5-fold lower, 7.93 µM
- CCOCC1(c2nc3c(C(=O)Nc4ccc5c(c4)CNC5)cc(F)cc3[nH]2)CC1 — 88-fold lower, 0.137 µM
- O=C1NCc2ccc(NC(=O)c3cc(Cl)cc4[nH]ncc34)cc21 — higher, > 99.5 µM
- O=C(Nc1cc(-c2cccnc2)ccn1)c1cc(C2CC2)[nH]n1 — higher, > 25 µM
- O=C(Nc1ccc2c(c1)CNC2)c1cc(Cl)ccc1OC1CCCC1 — 2.4-fold lower, 5.03 µM
- NCc1cccc(NC(=O)[C@@H](NC(=O)OCc2ccccc2)C2CCN(S(=O)(=O)Cc3cscn3)CC2)c1 — higher, > 99.5 µM
- O=C1CC[C@H]2[C@H](CCN2C(=O)c2ccc3c(c2)CNC3)N1 — higher, > 25 µM
- CN(C(=O)OCc1ccccc1)[C@H](C(=O)Nc1cccc(CN)c1)c1ccc(OCc2ccccc2)cc1 — 1.9-fold higher, 23.3 µM
- O=C(Nc1cc(Cl)cc(C(=O)Nc2ncc3n2CCNC3)c1)OCc1ccccc1 — higher, > 99.5 µM
- Cc1cc(C(=O)Nc2cccc(CN)c2)cc(NC(=O)OCc2ccccc2)c1Cl — 3.2-fold higher, 39 µM
- O=C(O)c1cc(Cl)ccc1S(=O)(=O)N[C@H]1CC[C@@H](Oc2ccccc2)CC1 — higher, > 99.5 µM
- CN1CCc2c([nH]c3ccc(C(=O)Nc4ccc5c(c4)CNC5)cc23)C1=O — 10-fold lower, 1.17 µM
- CCn1ccnc(N2CC[C@H](c3ccc(F)cc3)C2)c1=O — higher, > 99.5 µM
- NCc1cccc(NC(=O)[C@H](NC(=O)OCc2ccccc2)c2ccc(OCC3CCC3)cc2)c1 — 2.4-fold higher, 28.5 µM
- CCNC(=O)c1cn(CC)c(=O)c(N2CC[C@@H](CO)C2)n1 — higher, > 99.5 µM
- O=C(Nc1ccc2c(c1)CNC2)c1ccc2c(c1)CCC2 — within 1.5-fold, 11.7 µM
- NCc1cccc(NC(=O)[C@@H]2C[C@H](NC(=O)OCc3ccccc3)[C@H]3C[C@H]32)c1 — higher, > 99.5 µM
- CN(C(=O)c1ccc2c(c1)[C@H](CN)CCC2)C1CCN(CC(F)F)CC1 — higher, > 99.5 µM
- NCc1cc(C=C2CC(C(=O)O)C2)cc(NC(=O)c2cc(Cl)cc(NC(=O)OCc3ccccc3)c2)c1 (stereo unspecified) — within 1.5-fold, 9.31 µM
- Cc1ccc(C(C)C)c(C(=O)Nc2ccc3c(c2)CNC3)c1 — 3.3-fold lower, 3.72 µM
- CNc1c(-c2cc(Cl)cc(C3CC3)c2)nc2cccc(C(=O)O)n12 — higher, > 99.5 µM
- O=C(c1cc(Cl)cc2[nH]ncc12)N1C[C@H]2CNC[C@H]2C1 — higher, > 99.5 µM
- CCc1ccc(NS(=O)(=O)c2ccc(Oc3ccccc3Cl)cc2)c(C(=O)NC)c1 — higher, > 99.5 µM
- O=C(NCC(F)F)[C@H](Nc1ccc2c(c1)CNC2)c1cc(Br)ccc1OCc1ccccn1 — 81-fold lower, 0.15 µM
- CCc1cc(NC(=O)OCc2ccccc2)cc(C(=O)Nc2cccc(CN)c2)c1 — 3.3-fold higher, 39.8 µM
- NCc1cccc(NC(=O)[C@@H](N)c2ccc(OCc3ccccc3)cc2)c1 — higher, > 99.5 µM
- Cc1ccc(C(=O)Nc2ccc3c(c2)CNC3)c2[nH]ncc12 — 3.6-fold lower, 3.39 µM
- Cc1c(C(=O)Nc2cc(-c3cnn(C)c3)ccn2)cc(C2CC2)n1C — higher, > 99.5 µM
- C=CC[C@H]1c2ccc(NC(=O)c3cc(Br)cc4[nH]ccc34)cc2CN1C(=O)OC(C)(C)C — higher, > 25 µM
- NCc1cccc(NC(=O)[C@@H](NC(=O)OCc2ccccc2)c2cccc(OCc3cncnc3)c2)c1 — higher, > 99.5 µM
- O=C(O)c1cc(Cl)cc(F)c1NS(=O)(=O)c1ccc(Oc2ccccc2Cl)cc1 — 5.5-fold higher, 67 µM
- NCc1cccc(NC(=O)c2cc(Cl)ccc2Oc2cccc(Cl)c2)c1 — 5.1-fold higher, 61.7 µM
- N#Cc1ccc(OCCn2nnn(-c3ccccc3)c2=O)cc1 — higher, > 99.5 µM
- CCCNC(=O)[C@H](Nc1cccc(-c2nn[nH]n2)c1)c1cc(Cl)cc(NC(=O)OCc2ccccc2)c1 — 4-fold higher, 48.5 µM
- Cn1c(C2CC2)cc(C(=O)Nc2cc(-c3cccnc3)ccn2)c1C1CC1 — higher, > 25 µM
- O=C(Nc1ccc2c(c1)CNC2)c1cc(Br)cc2c1OCO2 — 14-fold lower, 0.848 µM
- CCN(CC)C[C@H]1CCCN(C(=O)Nc2ccc3c(c2)CNC3)C1 — higher, > 25 µM
- Cc1cnc([C@H]2CCCN(C(=O)Nc3ccc4c(c3)CNC4)C2)s1 — higher, > 25 µM
- CN(C)C(=O)c1cc(CN)cc([C@@H]2C[C@H]2c2cc(Cl)cc(NC(=O)OCc3ccccc3)c2)c1 — within 1.5-fold, 11.9 µM
- NCc1cccc(NC(=O)c2cc(NC(=O)OCc3ccccc3)cc(Cl)c2Cl)c1 — 3.6-fold higher, 43.9 µM
- CN1CCC(COc2cccc([C@H](NC(=O)OCc3ccccc3)C(=O)Nc3cccc(CN)c3)c2)CC1 — 7.2-fold higher, 87.6 µM
- CNC(=O)[C@H](Nc1cc(Cl)cc2[nH]ncc12)c1ccc2c(c1)CNC2 — 3-fold lower, 3.99 µM
- COC(=O)c1cc(NC(=O)OCc2ccccc2)cc(C(=O)Nc2cccc(CN)c2)c1 — 4.6-fold higher, 55.7 µM
- c1cncc([C@@H]2CN(Cc3c[nH]c4ccccc34)CCO2)c1 — higher, > 99.5 µM
- CCn1c(=O)c(N2CC[C@@]3(CCCN3C)C2)nc2ccccc21 — higher, > 99.5 µM
- CC(=O)N1Cc2ccc(NC(=O)c3cc(Cl)cc4[nH]ncc34)cc2C1 — higher, > 25 µM
- C=CC[C@H](Nc1cncc(Cl)c1)c1cccc(-c2nn[nH]n2)c1 — higher, > 99.5 µM
- O=C(Nc1ccc2c(c1)[C@H]1CC[C@H]2N1)c1cc(Cl)cc2[nH]ncc12 — 2.1-fold lower, 5.65 µM
- COc1ccc2nc(C)cc(C(=O)Nc3cccc(CN)c3)c2c1 — higher, > 99.5 µM
- O=C(Nc1cc(Cl)cc(C(=O)Nc2ccc(S(=O)(=O)N3CCNCC3)cc2)c1)OCc1ccccc1 — higher, > 99.5 µM
- NCc1cccc(NC(=O)c2cccc3c2CCC3)c1 — 1.6-fold higher, 19.5 µM
- O=C1CCCc2cc(C(=O)Nc3ccc4c(c3)CNC4)ccc2N1 — higher, > 25 µM
- CCCCCC(=O)N[C@H](C(=O)NCc1cccc(CN)c1)C1CCCCC1 — higher, > 99.5 µM
- NCc1cccc(NC(=O)c2nc(C3CC3)n(-c3ccccc3Cl)n2)c1 — higher, > 99.5 µM
- O=C(Nc1cc(Cl)cc(C(=O)Nc2cccc(Cc3nn[nH]n3)c2)c1)OCc1ccccc1 — 5.4-fold higher, 64.9 µM
- O=c1c2ccccc2ncn1CCCn1cnc2ccccc2c1=O — higher, > 99.5 µM
- COc1cc(Br)cc2c1NC(=O)[C@]2(Nc1ccc2c(c1)CNC2)C(N)=O — 1.6-fold higher, 19.9 µM
- CCc1ccc(-c2nc3c(C(=O)Nc4ccc5c(c4)CNC5)cc(Cl)cc3[nH]2)cc1 — 74-fold lower, 0.163 µM
- CCN(C)S(=O)(=O)N1CCC([C@H](NC(=O)OCc2ccccc2)C(=O)Nc2cccc(CN)c2)CC1 — higher, > 99.5 µM
- CCN1CC[C@@H](COc2ccc([C@@H](NC(=O)OCc3ccccc3)C(=O)Nc3cccc(CN)c3)cc2)C1 — higher, > 99.5 µM
- COc1ccc(S(=O)(=O)Nc2ccc(Cl)cc2C(=O)O)cc1 — higher, > 99.5 µM
- COCc1cc(Cl)cc(C(=O)Nc2cccc(CN)c2)c1 — 2.2-fold higher, 26.9 µM
- CCNC(=O)Nc1cc(Cl)cc(C(=O)Nc2cccc(C3CCNCC3)c2)c1 — 1.6-fold higher, 19.9 µM
- O=C(NCC(F)(F)F)c1cc(Cl)c(F)cc1NS(=O)(=O)c1ccc(Oc2ccccc2Cl)cc1 — within 1.5-fold, 10.6 µM
- O=C(N[C@H](C(=O)NCc1cccc(CO)c1)c1ccc(OCc2ccccc2)cc1)OCc1ccccc1 — higher, > 99.5 µM
- Cc1c(CN)c(C(=O)Nc2cc(-c3cccnc3)ccn2)nn1C — higher, > 25 µM
- FC(F)(F)c1nc(CNCc2cocn2)cs1 — higher, > 99.5 µM
- N#Cc1cc(C(=O)Nc2ccc3c(c2)CNC3)cc(C(F)(F)F)c1 — 23-fold lower, 0.533 µM
- N#Cc1ccc(N2CCN(Cc3c[nH]c4ccccc34)CC2)cc1 — 7.1-fold higher, 86.2 µM
- Nc1cccc(NC(=O)c2cc(Cl)cc(NC(=O)OCc3ccccc3)c2)c1 — higher, > 99.5 µM
- NCc1cccc(NC(=O)[C@@H](NC(=O)c2cccnc2)c2ccc(OCc3ccccc3)cc2)c1 — higher, > 99.5 µM
- CCc1ccc(S(=O)(=O)N[C@@H](C(=O)Nc2cccc(CN)c2)c2ccc(OCc3ccccc3)cc2)cc1 — 4.3-fold higher, 52.3 µM
- O=C(O)c1cc(Cl)ccc1S(=O)(=O)Nc1ccc(S(=O)(=O)N2CCCCC2)cc1 — higher, > 99.5 µM
- O=C(O)[C@@H]1CC2(CC[C@@H]1NS(=O)(=O)c1ccc(Oc3ccccc3Cl)cc1)CC2 — higher, > 99.5 µM
- CSCCCNC(=O)[C@H](Nc1ccc2c(c1)CNC2)c1cc(Cl)cc(C2CC2)c1 — 96-fold lower, 0.126 µM
- O=C(Nc1cc(Cl)cc(C(=O)N2CCC[C@H]2c2nnn[nH]2)c1)OCc1ccccc1 — higher, > 99.5 µM
- N#Cc1csc(CN2CCC([C@H](NC(=O)OCc3ccccc3)C(=O)Nc3cccc(CN)c3)CC2)c1 — higher, > 99.5 µM
- CNC(=O)[C@H](Nc1cc(Cl)cc(NC(=O)OCc2ccccc2)c1)c1ccc(-c2nn[nH]n2)cc1 — higher, > 99.5 µM
- Cc1cc(C(=O)Nc2ccc3c(c2)CNC3)c2cnn(C)c2n1 — 2.2-fold lower, 5.56 µM

In the case of NCc1cccc(NC(=O)[C@H](NC(=O)OCc2ccccc2)c2ccc(Br)c(Cl)c2)c1, the IC50 is reported as 10.9 µM and 8.65 µM and 8.23 µM and 9.33 µM.
For Cc1ncc(-c2cc(F)cc(C(=O)Nc3ccc4c(c3)CNC4)c2)s1, the IC50 was 0.071 µM and 0.052 µM.
With NCc1cccc(NC(=O)C[C@H](NC(=O)OCc2ccccc2)c2ccc(OCc3ccccc3)c(Br)c2)c1 the IC50 was 2.72 µM and 2.68 µM and 3.22 µM and 3.04 µM.
For NCc1cccc(NC(=O)[C@@H](NC(=O)OCc2ccccc2)c2ccc(-c3cccc(F)c3)cc2)c1, the IC50 was 7.19 µM and 6.8 µM.
For COc1cccc(-c2nc3c(C(=O)Nc4ccc5c(c4)CNC5)cc(F)cc3[nH]2)c1, the IC50 was 0.046 µM and 0.042 µM and 0.025 µM.
NCCc1ccc(CNC(=O)[C@@H](NC(=O)OCc2ccccc2)c2ccc(OCc3ccccc3)cc2)cc1 was tested, and the IC50 was 16.3 µM and 13.9 µM.
In the case of Cn1c(=O)[nH]c2c(C(=O)Nc3ccc4c(c3)CNC4)cc(Br)cc21, the IC50 is reported as 0.034 µM and 0.022 µM.
NCc1cccc(NC(=O)C[C@H](NC(=O)OCc2ccccc2)c2ccc(Cl)c(Br)c2)c1 was tested, and the IC50 was 20.7 µM and 18.8 µM and 15.9 µM and 15.5 µM.
O=C(Nc1ccc2c(c1)CNC2)c1cc(Cl)cc2[nH]c(-c3ccnn3C3CC3)nc12 was tested, and the IC50 was 0.1 µM and 0.076 µM.
For COCn1ncc2c(C(=O)Nc3ccc4c(c3)CNC4)cc(Cl)cc21, the IC50 was 0.08 µM and 0.054 µM.
